Here are results for six compounds from ChEMBL document CHEMBL3112431, “Constrained TRPV1 agonists synthesized via silver-mediated intramolecular azo-methine ylide cycloaddition of α-iminoamides” (Bioorg Med Chem Lett, 2014).

Activity calls are given as the source filed them. No cut-off for these calls is given here.

For the first experiment, the target named is Transient receptor potential cation channel subfamily V member 1 (Rattus norvegicus) (UniProt O35433). Kind of experiment: Agonist activity at TRPV1 in rat dorsal root ganglia neurons by 45Ca2+ uptake assay.
Transient receptor potential cation channel subfamily V member 1 (Rattus norvegicus), sequence (O35433 whole entry): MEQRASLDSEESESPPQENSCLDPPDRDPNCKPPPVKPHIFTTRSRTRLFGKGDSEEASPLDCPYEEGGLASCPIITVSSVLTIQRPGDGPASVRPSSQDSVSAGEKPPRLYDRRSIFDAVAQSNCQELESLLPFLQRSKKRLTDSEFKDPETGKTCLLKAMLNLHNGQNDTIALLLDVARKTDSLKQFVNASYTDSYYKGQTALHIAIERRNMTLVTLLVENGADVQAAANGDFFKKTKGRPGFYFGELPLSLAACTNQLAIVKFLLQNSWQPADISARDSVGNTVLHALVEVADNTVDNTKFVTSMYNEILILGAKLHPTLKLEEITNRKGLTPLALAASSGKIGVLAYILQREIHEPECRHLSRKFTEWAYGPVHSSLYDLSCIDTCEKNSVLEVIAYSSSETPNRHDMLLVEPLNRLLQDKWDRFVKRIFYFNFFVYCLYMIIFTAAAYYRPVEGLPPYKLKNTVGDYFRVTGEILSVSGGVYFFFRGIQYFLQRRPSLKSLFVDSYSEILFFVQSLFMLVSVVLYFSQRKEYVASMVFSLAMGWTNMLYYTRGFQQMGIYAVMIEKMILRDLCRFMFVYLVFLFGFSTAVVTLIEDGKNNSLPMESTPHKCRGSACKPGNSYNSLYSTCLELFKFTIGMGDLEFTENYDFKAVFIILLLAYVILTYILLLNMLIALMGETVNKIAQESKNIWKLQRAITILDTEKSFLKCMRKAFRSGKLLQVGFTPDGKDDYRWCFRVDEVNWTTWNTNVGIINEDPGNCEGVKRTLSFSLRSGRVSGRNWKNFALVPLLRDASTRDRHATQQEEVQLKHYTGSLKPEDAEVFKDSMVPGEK
Take `COc1cc(CNC(=O)CCCC/C=C/C(C)C)ccc1O`: the result was Active. Still for that read-out and setting: the value for `CCOC(=O)[C@H]1[C@H]2COc3ccc(Cl)cc3[C@@H]2N2C(=O)c3ccc(C)cc3NC(=O)[C@@]12C` was “Active”.

Another experiment shares this target. Description: Partial agonist activity at TRPV1 in rat dorsal root ganglia neurons by 45Ca2+ uptake assay.
As for `CCOC(=O)[C@@H]1[C@H]2COc3ccc(OC)cc3[C@@H]2N[C@]1(C)C(=O)Nc1cc(C)ccc1C(=O)OC`, the result was Active. For `CCOC(=O)[C@@H]1[C@H]2COc3c(F)cccc3[C@@H]2N[C@]1(C)C(=O)Nc1cc(C)ccc1C(=O)OC`, the result was Active.

For `CCOC(=O)[C@@H]1[C@H]2COc3ccc(F)cc3[C@@H]2N[C@]1(C)C(=O)Nc1cc(C)ccc1C(=O)OC`, the result was Active. The same measure, in the same setting: the entry for `CCOC(=O)[C@@H]1[C@H]2COc3ccc(Cl)cc3[C@@H]2N[C@]1(C)C(=O)Nc1cc(C)ccc1C(=O)OC` is “Active”.
